In brackets after ≈: the same amount, converted by molar mass.
Settings: buffer; pH 7.4; 6.0 h; 150.0 µM

Row | SMILES | solubility kinetic
1 | NC(=O)C1CCN(c2nc(-c3cccc4sc5ccccc5c34)cs2)CC1 | < 1 µg/mL
2 | COc1ccc(NC(=O)C23CC4CC(CC(C4)C2)C3)cc1[S+](=O)([O-])Nc1ccc(Br)cc1 | < 1 µg/mL
3 | Cc1cnccc1-c1nc(Nc2ccc(F)c(F)c2)c2ccccc2n1 | 1.43 µg/mL (≈ 4.09 µM)
4 | CC[C@H]1/C=C\C=C/C[C@@H](C)[C@H](O)[C@@](C)(O)C(=O)[C@@H](C)[C@H](O)[C@@H](C)C(=O)[C@@H](C)[C@H](O)[C@@H](C)/C=C\C(=O)O[C@@H]2[C@H](C)[C@H](CC1)O[C@]1(CC[C@H](C)[C@H](C[C@@H](C)O)O1)[C@H]2C | < 1 µg/mL
5 | Cc1ccc(C)c(CN2C(=O)c3ccccc3S(=O)c3ccc(C(=O)N4CCN(c5ccccc5F)CC4)cc32)c1 (stereo not drawn) | < 1 µg/mL
6 | CCCc1cc(C)[nH]c(=O)c1CNC(=O)c1cc(-c2ccnc(N3CCN(C)CC3)c2)cc2c1cnn2C(C)C | 64 µg/mL (≈ 118 µM)
7 | CC(=O)Nc1ccc(-c2csc(N3CCC(C(N)=O)CC3)n2)cc1 | > 51 µg/mL
8 | COc1ccc(NC(=O)c2cccnc2C)cc1S(=O)(=O)Nc1ccc(Br)cc1 | 26.4 µg/mL (≈ 55.5 µM)
9 | Cc1ccc(S(=O)(=O)Nc2ccccc2CNc2nc(-c3ccccc3)cs2)cc1 | < 1 µg/mL
10 | NC(=O)C1CCN(c2nc(-c3cccc(C(F)(F)F)c3)cs2)CC1 | 2.41 µg/mL (≈ 6.78 µM)
11 | CC(=O)c1c(C)[nH]c(C(=O)Nc2cccc(S(=O)(=O)N3CCCCC3)c2)c1C | 4.57 µg/mL (≈ 11.3 µM)
12 | CSc1ccccc1-c1ccc(Nc2nc(-c3ccncc3)nc3ccccc23)cc1F | < 1 µg/mL
13 | COc1cccc(C(=O)Nc2nc(-c3nnn(-c4cccc(Cl)c4C)c3C)ns2)c1 | < 1 µg/mL
14 | NC(=O)C1CCN(c2nc(-c3ccccc3F)cs2)CC1 | 4.65 µg/mL (≈ 15.2 µM)
15 | Cc1ccc(-n2ncc(C(=O)NCCN3CCC(Cc4ccccc4)CC3)c2C2CCN(C(=O)OC(C)(C)C)CC2)cc1 | 23.2 µg/mL (≈ 39.6 µM)
16 | CN(C(=O)CNC(=O)c1ccccc1OCC(=O)Nc1ccc(I)cc1)c1ccccc1 | 1.28 µg/mL (≈ 2.35 µM)
17 | CCCCOc1ccc(C2c3c(oc4ccc(C)cc4c3=O)C(=O)N2CCCN(C)C)cc1OCC (stereo not drawn) | 58.5 µg/mL (≈ 119 µM)
18 | COc1cc(/C=C(\C#N)C(=O)c2ccc(O)c(O)c2)cc(I)c1O | 50.3 µg/mL (≈ 115 µM)
19 | COc1ccc(C[C@@H]2C(=O)N[C@H](C)C(=O)N(C)[C@@H]3C(=O)N(C)[C@@H](Cc4ccc(O)c(c4)Oc4ccc(cc4)[C@H]3O)C(=O)N[C@@H](C)C(=O)N[C@H](C)C(=O)N2C)cc1 | 96.4 µg/mL (≈ 125 µM)
20 | COc1ccc(-c2noc(CSc3nnc(Cc4ccccc4)n3-c3ccc(F)cc3)n2)cc1 | < 1 µg/mL

Row | SMILES | solubility kinetic
21 | Cc1c(CN(C)c2cc(C3CC(O)C3)nc(N)n2)[nH]c2ccccc12 (stereo not drawn) | > 50 µg/mL
22 | COc1ccccc1-c1cc2c(ccn2C)c(C(=O)NCC2CCN(C)C(=O)C2)n1 (stereo not drawn) | > 90 µg/mL
23 | Nc1ccccc1OCCn1c(CCNC(=O)C2CCCCC2)nc2ccccc21 | 44.5 µg/mL (≈ 109 µM)
24 | CN(C)c1ccc(CN2CCNc3cc(Nc4ccccc4)ncc3C2)cc1 | > 83 µg/mL
25 | Cc1cc(-c2cc3c(nc2-c2ccccc2)nc(C(=O)NCCN(C)C)n3C)ccn1 | 54.5 µg/mL (≈ 132 µM)
26 | Nc1cccc(CNc2ccc(S(=O)(=O)Nc3nccs3)cc2)c1O | 47.2 µg/mL (≈ 125 µM)
27 | Nc1ncnc2c1c(-c1ccc(Oc3ccccc3)cc1)cn2C1CCCC1 | < 1 µg/mL
28 | Cc1cc(C)cc(NS(=O)(=O)c2ccc3[nH]cc(C(=O)NCc4ccco4)c(=O)c3c2)c1 | 2.87 µg/mL (≈ 6.35 µM)
29 | Cc1cccc(-c2noc([C@@H]3Cc4nc[nH]c4CN3C(=O)CC(C)(C)CC(=O)O)n2)c1 | > 63 µg/mL
30 | Cc1cc(C)nc(NC(=S)N2CCN(c3cc(C(F)(F)F)nc4ccc(C(F)(F)F)cc34)CC2)c1 | 12 µg/mL (≈ 23.4 µM)
31 | Fc1ccc(-c2nc(-c3ccncc3)nc3ccccc23)cc1F | < 1 µg/mL
32 | NC(=O)COc1cccc(C2CC(=O)Nc3nc(N4CCCCC4)sc32)c1 (stereo not drawn) | > 57 µg/mL
33 | Cc1cnc(CNc2nc(-c3cccc(NS(C)(=O)=O)c3)nc3ccccc23)cn1 | 44 µg/mL (≈ 105 µM)
34 | CCC(=O)NC(c1ccco1)c1cc(Cl)c2cccnc2c1O (stereo not drawn) | < 1 µg/mL
35 | CC(=O)c1c(C)[nH]c(C(=O)Nc2cccc(S(=O)(=O)Nc3cccc(C#N)c3)c2)c1C | 21 µg/mL (≈ 48.2 µM)
36 | O=C(Nc1ccc([S+](=O)([O-])Nc2nccs2)cc1)c1ccn[nH]1 | > 52 µg/mL
37 | Cn1nnnc1Sc1ncnc2scc(Br)c12 | 1.27 µg/mL (≈ 3.85 µM)
38 | Fc1cc(Nc2nc(-c3ccncc3)nc3ccccc23)ccc1-c1ccnc(C(F)(F)F)c1 | < 1 µg/mL
39 | COc1ccccc1N1CCN(CCN(C(=O)c2ccc(F)cc2)c2ccccn2)CC1 | > 64 µg/mL

Now from value to compound:

Row | solubility kinetic | SMILES
40 | < 1 µg/mL | CC1(C)CCC(c2ccc(Cl)cc2)=C(CN2CCN(c3ccc(C(=O)NS(=O)(=O)c4ccc(N[C@H](CCN5CCOCC5)CSc5ccccc5)c(S(=O)(=O)C(F)(F)F)c4)cc3)CC2)C1
41 | < 1 µg/mL | CC(C)(C)c1ccc(-n2cnc3cc(C(=O)N4CCCCC4)ccc32)cc1
42 | < 1 µg/mL | COc1cc(C(=O)N2CCN(c3cc(Cl)ccc3Cl)CC2)cc(OC)c1OC
43 | < 1 µg/mL | CCS(=O)(=O)c1cccc(C(=O)Nc2ccc(-c3nc4ccccc4s3)c(O)c2)c1
44 | 3.28 µg/mL (≈ 9.65 µM) | Oc1ccc(NCc2ccccc2OCc2ccccc2Cl)cc1
45 | < 1 µg/mL | Cc1ccnc(NC(=S)N2CCN(c3ccc(C(F)(F)F)cc3)CC2)c1
46 | > 54 µg/mL | CC(=O)c1ccc(N2CCN(C(=O)c3ccc4c(c3)CC(=O)N4)CC2)cc1
47 | > 100 µg/mL | Cc1noc([C@@H]2CN(C(=O)c3nn(C)c4ccccc34)C[C@H]2CO)n1
48 | < 1 µg/mL | CC(C)(C#N)c1ccc(N2C(=O)OCc3cnc4ccc(-c5cnc6ccccc6c5)cc4c32)cc1
49 | < 1 µg/mL | CCCCn1cc2c(c1-c1ccc(Br)cc1)c(=O)n(C)c(=O)n2C
50 | < 1 µg/mL | Cn1cncc1[C@@](N)(c1ccc(Cl)cc1)c1ccc2c(c1)c(-c1cccc(Cl)c1)cc(=O)n2C
51 | < 1 µg/mL | COc1cc(C2CC(=O)Nc3cc4c(cc32)OCCO4)cc(Br)c1OC (stereo not drawn)
52 | 7.92 µg/mL (≈ 20.8 µM) | Cc1ccnc(NC(=S)N2CC[C@@H](Nc3cccc(C(F)(F)F)c3)C2)c1
53 | 10.6 µg/mL (≈ 32.9 µM) | NC(=O)C1CCN(c2nc(-c3cccc(Cl)c3)cs2)CC1
54 | 39.4 µg/mL (≈ 100 µM) | COc1ccc(-n2nc(C3CCCN(C(=O)c4ccc(C)cc4)C3)[nH]c2=O)cc1 (stereo not drawn)
55 | 47 µg/mL (≈ 97.8 µM) | CC(C)(O)Cn1c(NC(=O)c2ccc(-c3cn[nH]c3)s2)nc2cc(CN3CCOCC3)ccc21
56 | 3.08 µg/mL (≈ 7.19 µM) | Cc1cc(C)nc(NC(=S)N2CCN(c3ccc(C(F)(F)F)cc3Cl)CC2)c1
57 | 15.2 µg/mL (≈ 47.2 µM) | Cc1noc(C)c1-c1cc2c(cc(C)n2C)c(-c2cnn(C)c2)n1
58 | < 1 µg/mL | CCc1ccc2oc(NC3=NC(c4[nH]ncc4Cl)C4=C(CCCC4=O)N3)nc2c1 (stereo not drawn)
59 | < 1 µg/mL | Cc1ccccc1C(=O)N1CCc2cc(-c3nc(NC(=O)c4ccc5c(c4)OCO5)sc3C)ccc21
60 | < 1 µg/mL | COc1ccccc1C(=O)Nc1ccccc1C(=O)Nc1cccc(SC(F)(F)F)c1
61 | < 1 µg/mL | C[S+](=O)([O-])N1CCC(Cn2ccc3c(N4CCOCC4)nc(-c4cccc5[nH]ccc45)cc32)CC1
62 | 6.7 µg/mL (≈ 14.9 µM) | Cc1ccnc(NC(=S)N2CCN(c3cc(C(F)(F)F)cc(C(F)(F)F)c3)CC2)c1
63 | 15.2 µg/mL (≈ 37.1 µM) | COc1cccc(-n2nc(C(=O)O)cc2-c2ccc(C3CCCCC3)c(Cl)c2)c1
64 | 14.2 µg/mL (≈ 24 µM) | O=C(NCCCNc1nc(Nc2cccc(NC(=O)N3CCCC3)c2)ncc1I)c1cccs1
65 | 69.1 µg/mL (≈ 124 µM) | CN1CCN(c2ccc(-c3cccc(CN4CCOCC4)c3)cc2NC(=O)c2c[nH]c(=O)cc2C(F)(F)F)CC1
66 | 41.1 µg/mL (≈ 72.1 µM) | CCCc1cc(C)[nH]c(=O)c1CNC(=O)c1cc(-c2ccc(N3CCN(C(C)C)CC3)nc2)cc2c1cnn2C(C)C

Row | solubility kinetic | SMILES
67 | 8.8 µg/mL (≈ 21.6 µM) | COc1ccc(S(=O)(=O)N(C(=O)C(C)C)c2ccc3oc(=O)sc3c2)cc1
68 | < 1 µg/mL | Cc1ccc(NC(=O)NCC2CCN(Cc3cccc(Cl)c3)CC2)cc1Cl
69 | < 1 µg/mL | Cc1ccc(-c2ccc(CNc3nc(-c4ccccc4C(C)C)nc4ccccc34)cc2)cn1
70 | < 1 µg/mL | Cc1ccc(NC(=O)c2cc(-c3ccc(C)o3)nc3ccccc23)nc1
71 | 41.8 µg/mL (≈ 99 µM) | CCOC(=O)C1CCN(C(=O)C2(NC(=O)Nc3ccccc3Cl)CCCC2)CC1
72 | 7.15 µg/mL (≈ 19 µM) | Cc1ccccc1C(=O)Nc1ccc2c(c1)CCCN2C(=O)c1cccs1
73 | < 1 µg/mL | COc1ccccc1-c1nc(NCc2ccc(-c3cccnc3)cc2)c2ccccc2n1
74 | < 1 µg/mL | NC(=O)C1CCN(c2ncc(-c3ccc(Cl)cc3)s2)CC1
75 | 26.2 µg/mL (≈ 69.2 µM) | O=C(Nc1cccc(C(F)(F)F)c1)C1=CCN(Cc2ccc(F)cc2)CC1
76 | 1.04 µg/mL (≈ 2.64 µM) | COc1ccc(NC2=C(c3ccc(C(F)(F)F)cc3)C(=O)c3ccccc32)cc1
77 | 5.42 µg/mL (≈ 12.7 µM) | O=C(NCCc1ccccn1)C1CC(=O)N(c2n[nH]c3cc(Br)ccc23)C1 (stereo not drawn)
78 | 1.1 µg/mL (≈ 3.15 µM) | O=C(Nc1nc(-c2ccccn2)cs1)c1cccc(-n2cnnn2)c1
79 | < 1 µg/mL | CC(C)(C)c1ccc(-c2csc(N3CCC(C(N)=O)CC3)n2)cc1
80 | 6.63 µg/mL (≈ 15.7 µM) | COc1ccc(CCNC(=O)Cn2c(=O)c3cccn3c3ccc(F)cc32)cc1OC
81 | 13.2 µg/mL (≈ 39.8 µM) | Fc1ccccc1CNCc1ccc(-c2ccnc3[nH]ccc23)cc1
82 | < 1 µg/mL | CCCN1C(CC(C)C)=NS(=O)(=O)c2cc(NC(=O)c3ccco3)ccc21
83 | > 59 µg/mL | O=C(c1cnc(N2CCCCC2)c2ccccc12)N1CCN(c2ccccn2)CC1
84 | < 1 µg/mL | O=C(Cc1n[nH]c(=O)c2ccccc12)NC1CCCc2c1[nH]c1c(Cl)cccc21 (stereo not drawn)
85 | < 1 µg/mL | Fc1cnc(-c2ccccc2C(F)F)nc1NCc1ccc(-c2cccnc2)cc1
86 | < 1 µg/mL | O=C(Nc1ccccc1)C1CC(=O)N(c2n[nH]c3cc(Br)ccc23)C1 (stereo not drawn)
87 | 27.3 µg/mL (≈ 122 µM) | CCN(CC)C(=O)c1ccc(O)c(OC)c1
88 | 28.1 µg/mL (≈ 77.2 µM) | Cc1ncc2c(c1CNC(=O)Cn1cnc3ccccc3c1=O)CCNC2
89 | > 58 µg/mL | COc1cccc(CNc2ccc(S(=O)(=O)Nc3nccs3)cc2)c1N
90 | < 1 µg/mL | COc1cc(Nc2nc(-c3ccncc3)nc3ccccc23)ccc1Cl
91 | > 57 µg/mL | C[S+](=O)([O-])c1ccc(-c2nc(C(=O)N3CCOCC3)n3ccncc23)cc1
92 | 41.7 µg/mL (≈ 110 µM) | NC(=O)COc1ccc(C2CC(=O)Nc3n[nH]c(Nc4ccccc4)c32)cc1 (stereo not drawn)
93 | 37.7 µg/mL (≈ 109 µM) | Cc1cccc(-n2cnc3cc(C(=O)N4CCCC(C)(C)C4)ccc32)c1

From PubChem BioAssay AID1645848
